Assay [1] deals with FC (3T3 clumps). As to the kind of experiment: Nuclear dynamics by time-lapse confocal microscopy of Hoechst 33342 stained nuclei. The format is cell-based, mouse. Particulars: TSA-treated FC compared to control FC. As to the method: Nuclear dynamics were analyzed from the decorrelation of the nuclear images in time as described previously(37). Time-lapse live-imaging of nucleus stained with Hoechst 33342 (ThermoFisher Scientific) was done in confocal mode with time intervals of one minute for up to 32 minutes in PR, FC and FC+TSA conditions. One Pearson correlation coefficient (PCC) value was calculated from two lists of pixel intensity of the same nucleus captured in different time points with a certain time lag. For each cell, one PCC curve was drawn which connecting all PCCs (as y) with the increasing time lags (as x) as represented in dim color in FIG. 5A. The mean PCC curves for all cells in each condition, were drawn in bright color in FIG. 5A. The mean PCC curves in each condition were fitted by equation y=(1−α)+α exp(−t/τ)−η, where y refers to PCC value, t is time lags, fitting parameter α is drop rate, τ is time constant, η is noise.

Assay [2] deals with FC (3T3 clumps). As to the kind of experiment: H3K9ac immunofluorescence. It is filed as cell-based, mouse. The note with it: TSA-treated FC compared to untreated FC. The protocol:
(§1) Cells embedded in Collagen-I gel were fixed with 4% Paraformaldehyde (Sigma) in PBS buffer (pH 7.4) for 25 min, followed by washing with PBS+100 mM glycine buffer (5 min×3). Cells were permeabilized using 0.5% Triton (Sigma-Aldrich) in PBS for 20 min, followed by washing with PBS-glycine buffer (5 min×3). After that, cells were blocked with 10% goat serum (ThermoFisher Scientific) in IF wash buffer (PBS+0.2% Triton+0.2% tween 20) for 3 h at room temperature. Next, cells were incubated overnight with different primary antibodies diluted in blocking buffer, followed by washing with IF wash buffer (15 min×3). […] Cell nuclei were stained with NucBlue Live Ready Probes (Molecular Probes; Thermo Fisher Scientific) in PBS for 10 min at room temperature, and filamentous actin was labeled using phalloidin Alexa Fluor 488 or 568 (1:100; Molecular Probes; Thermo Fisher Scientific) for 45 min.
(§2) Fluorescent images of 3D spheroids and cells embedded in 3D Collagen-I gel were acquired by using Nikon AIR laser scanning confocal microscope (Nikon Instruments Inc, Japan), at either 20× magnification (Plan Apo 20× ELWD, NA 0.8) or 63× magnification (1.25 NA oil objective) with identical acquisition settings. […] The sprouting length of each spheroid embedded in 3D collagen matrix was measured from the large field fluorescent micrograph of actin using AngioTools software.

The test system of assay [3] is FC embedded in 3D collagen matrix (FCG). As to the kind of experiment: pMLC immunofluorescence of sprouted cells in 3D collagen matrix. It is filed as cell-based, mouse. As to the method:
as §1, §2

Assay [4] concerns RF embedded in fibrillary collagen matrix. As to the kind of experiment: Collagen fibre remodeling/stiffening by matrix-embedded fibroblasts (immunostained collagen). Particulars: for collagen fiber stiffening: addition to spheroids sprouting in collagen matrix. It is filed as cell-based, mouse. The text has this:
In order to characterize these RF in vitro, one compared the gel contraction abilities of cells derived from PR spheroids or from FC, both of which were equally embedded in the 3D collagen matrix. […] Fibroblasts are known to exert mechanical forces on the extracellular matrix surrounding them. […] Both RF and FCG embedded in fibrillary collagen matrix were able to remodel collagen fibrils into thicker bundles (FIG. 3F).
Cells embedded in Collagen-I gel were fixed with 4% Paraformaldehyde (Sigma) in PBS buffer (pH 7.4) for 25 min, followed by washing with PBS+100 mM glycine buffer (5 min×3). Cells were permeabilized using 0.5% Triton (Sigma-Aldrich) in PBS for 20 min, followed by washing with PBS-glycine buffer (5 min×3). After that, cells were blocked with 10% goat serum (ThermoFisher Scientific) in IF wash buffer (PBS+0.2% Triton+0.2% tween 20) for 3 h at room temperature. Next, cells were incubated overnight with different primary antibodies diluted in blocking buffer, followed by washing with IF wash buffer (15 min×3). Cells were then incubated with corresponding fluorescent-labeled secondary antibodies diluted in 5% goat serum in IF wash buffer for 3 h at room temperature. Cell nuclei were stained with NucBlue Live Ready Probes (Molecular Probes; Thermo Fisher Scientific) in PBS for 10 min at room temperature, and filamentous actin was labeled using phalloidin Alexa Fluor 488 or 568 (1:100; Molecular Probes; Thermo Fisher Scientific) for 45 min.
Fluorescent images of 3D spheroids and cells embedded in 3D Collagen-I gel were acquired by using Nikon AIR laser scanning confocal microscope (Nikon Instruments Inc, Japan), at either 20× magnification (Plan Apo 20× ELWD, NA 0.8) or 63× magnification (1.25 NA oil objective) with identical acquisition settings. In the Z dimension, each spheroid and 3D Collagen-I gel was scanned up to a depth of 50 μm, with a step size of 1 to 5 μm. Confocal images of either 512×512 or 1024×1024 pixels were obtained with an XY optical resolution of 0.42 μm or 0.21 μm, respectively. Time lapse imaging was done in confocal mode for up to 60 min and 18 h with 60 s and 30 m time intervals, respectively. Bright-field images were acquired using the EVOS FL Cell Imaging System (Thermo Fisher Scientific). For gel contraction assay, images of collagen gel at different days of cell growth were acquired with a mobile camera at a fixed magnification. The fluorescence intensity was measured for each protein in its respective channel and the number of gH2Ax foci per nucleus was determined using custom-written code in Fiji (NI) MATLAB (Mathworks) and IMARIS8. The sprouting length of each spheroid embedded in 3D collagen matrix was measured from the large field fluorescent micrograph of actin using AngioTools software.

Assay [5] has as its system 6 day-old spheroids of NIH3T3 mouse embryonic fibroblasts. As to the kind of experiment: Cell sprouting from partially reprogrammed spheroids in 3D collagen matrix (AngioTools). The format is cell-based. The note with it: addition to spheroids sprouting in collagen matrix.
Text: These 6 day-old spheroids were embedded in collagen gels and cultured for at least 2 days (FIG. 1A). Within few hours, cells originating from the spheroids progressively invaded the collagen matrix and migrated either individually as unicellular sprouts (single cells) or collectively as complex capillary-like structures (FIG. 1B). In addition to cell invasion, morphological modifications in the spheroid core itself were detected. While the spheroids initially appeared as a compact structure, subsequent cell migration induced spheroid expansion occurred and led to breaches in the spheroid core. […]
as §2, with “The fluorescence intensity was measured for each protein in its respective channel and the number of gH2Ax foci per nucleus was determined using custom-written code in Fiji (NI) MATLAB (Mathworks) and IMARIS8. The” for “The”

Molecules are shown by their SMILES.

In the case of `CC(/C=C/C(=O)NO)=C\[C@@H](C)C(=O)c1ccc(N(C)C)cc1` [TSA, Trichostatin A], the nuclear dynamics entry with FC (3T3 clumps) [1] is given as “increase in nuclear dynamics”. In addition, in the assay on FC (3T3 clumps) [2], the H3K9ac levels entry is “significant increase”. Further, the “level of pMLC” value in assay [3] (TSA-treated FCG compared to untreated FCG and RF) is “higher level”. Moreover, the “contractility upon exposure to ECM-related cues” value in assay [3] (fibroblasts treated with the HDAC inhibitor) is “increased contractility”.
Regarding `C[C@@H](N)[C@H]1CC[C@H](C(=O)Nc2ccncc2)CC1` [Y-27632], the “remodeling of collagen fibrils around RF” value in assay [4] (25 μM) is recorded as “very less or no remodeling”.
With `Cc1ccc2c(c1)C(=O)C1(O)CCN(c3ccccc3)C1=N2` (stereo not shown) [blebbistatin], in assay [5], the average sprouting length result was “significant reduction”. In addition, the collagen fiber stiffening entry in assay [4] is “drop”.
For the molecule `C=C1[C@@H](C)[C@H]2[C@H](Cc3ccccc3)NC(=O)[C@]23[C@H](OC(C)=O)/C=C/[C@@](C)(O)C(=O)[C@@H](C)C/C=C/[C@H]3[C@@H]1O` [cytoD, cytochalasin D], the average sprouting length result in assay [5] is “significant reduction”. Besides, the “remodeling of collagen fibrils around RF” value in assay [4] (4 μM) is reported as “very less or no remodeling”. The collagen fiber stiffening entry in assay [4] is given as “drop”.

Values taken from patent US20230235289A1, “METHOD FOR FIBROBLAST REJUVENATION BY MECHANICAL REPROGRAMMING AND REDIFFERENTIATION” (Paul Scherrer Institut, priority 2020, published 2023).
